Reference: ChEMBL document CHEMBL1128044, “Dichotomin A, a new cyclic hexapeptide from Stellaria dichotoma L. var. lanceolata Bge” (Bioorg Med Chem Lett, 1995)
≈ marks a conversion by molar mass, not a printed value. Residues, ends and D or L forms follow the SMILES beside them.

Tested on: P388
Experiment: Tested for inhibitory activity against p-388 lymphocytic leukemia cells
Type: functional, cell-based
Conditions: Mus musculus

- IC50: 2.5 µg/mL (≈ 3.67 µM)
Structure (SMILES): CC(C)C[C@@H]1NC(=O)[C@H](Cc2ccccc2)NC(=O)[C@H]([C@@H](C)O)NC(=O)CNC(=O)[C@H](C(C)C)NC(=O)[C@H](Cc2ccc(O)cc2)NC1=O (HELM PEPTIDE1{F.L.Y.V.G.T}$PEPTIDE1,PEPTIDE1,1:R1-6:R2$$$V2.0)
